Laboratory results published in patent US5312749A, “Industrial alkaline protease from shipworm bacterium” (The United States of America as represented by the …, priority 1992, dated 1994).
Counter-ions that a name gives are not always drawn. Like-named read-outs stand apart in the source and are kept apart here.

Columns and labels:
[1] = test system: alkaline protease from shipworm bacterium; experiment: Inhibition of alkaline protease: preincubation with inhibitor, then azocasein assay; type: biochemical, bacterial symbiont of the shipworm Psiloteredo healdi; settings: for Activity (%): assay 42° C., pH 9.0, 0.2M NaCl
Experimental: The protease purification was monitored by assaying for proteolytic activity and protein concentration after each step. Proteolytic activity was determined in duplicate assays employing azocasein for the substrate, as described by Cotta et al. [Applied Environmental Microbiology, vol. 52, 51-58 (1986)]. Units represent μg of azocasein digested per hour. Protein concentrations were determined by the method of Bradford [Analytical Biochemistry, […] (1976)] with bovine serum albumin as a standard.
Several compounds known to inhibit various proteases were examined for their effect on the activity of the purified enzyme from Example 2 (Table II). The protease was incubated prior to assay for 1 hr at 25° C. All assays were measured at 42° C. and pH 9.0 in 0.2M NaCl buffered with 100 mM bis Tris propane.

[2] = test system: alkaline protease from shipworm bacterium; experiment: as above; type: biochemical, bacterial symbiont of the shipworm Psiloteredo healdi; settings: inhibitor 0.1%; preincubation 1 hr at 42° C.; assay 42° C., pH 9.0, 0.2M NaCl
[3] = inhibitor 0.1 mM, preincubated 1 hr at 25° C., 100% = 154 units/ml
[4] = inhibitor 10 mM, preincubated 1 hr at 25° C., 100% = 154 units/ml
[5] = inhibitor 1 mM, preincubated 1 hr at 25° C., 100% = 154 units/ml

| Compound | Activity (%) [1, 3] | Activity (%) [1, 4] | effect on the activity of the protease (in words) [1] | Activity (%) [1, 5] | also measured |
| --- | --- | --- | --- | --- | --- |
| [Cl][Cu][Cl] [CuCl2] | 97% | 94% | – | – | – |
| O=C(O)CN(CCN(CC(=O)O)CC(=O)O)CC(=O)O [EDTA (disodium salt), EDTA] | – | 102% | little effect | – | – |
| [Cl][Hg][Cl] [HgCl2] | 66% | 8% | – | – | – |
| NC(=O)CI [Iodoacetamide] | 102% | 100% | little effect | 102% | – |
| Cc1ccc2ccc3ccc(C)nc3c2n1 [Neocuproine HCl] | – | 99% | little effect | – | – |
| O=S(=O)(F)Cc1ccccc1 [Phenylmethanesulphonyl fluoride] | 93% | 102% | does not inhibit activity | 98% | – |
| O.O.O.O.[Na+].[O-]B1OO1 [Sodium perborate tetrahydrate] | – | – | – | – | Activity (%) [2]: 117%; Activity (%) ([1]; inhibitor 0.1%, preincubation 1 hr at 25° C.): 119%; effect on the activity of the protease (in words) ([1]; listed as perborate): protease activity stimulation; effect on the activity of the protease (in words) ([1]; listed as sodium perborate): little effect; effect on the activity of the protease (in words) ([1]; listed as sodium perborate tetrahydrate): apparent enhancement of protease activity |
| Cc1ccc(S(=O)(=O)N[C@@H](CCCCN)C(=O)CCl)cc1 [TLCK, tosyl-1-lysine chloromethyl ketone] | 47% | 7% | significantly reduces the activity at low concentrations and abolishes it at high concentrations | 20% | – |
| Cc1ccc(S(=O)(=O)N[C@@H](Cc2ccccc2)C(=O)CCl)cc1 [TPCK, tosylamide phenylethyl chloromethyl ketone] | 94% | 100% | unaffected | 99% | – |
| NCCCCCC(=O)O [ε-Amino-n-caproic acid] | – | – | unaffected | – | Activity (%) ([1]; inhibitor 100 μg, preincubated 1 hr at 25° C.): 101%; Activity (%) ([1]; inhibitor 500 μg, preincubated 1 hr at 25° C.): 99% |
